In assay [1] the test system is VEGF-induced proliferation of HUVEC cells. The experiment in a line: VEGF-induced HUVEC proliferation, MTT assay. The class given is cell-based, human. As to conditions: for inhibition of VEGF-induced HUVEC proliferation (in words): 20 μM; for inhibition at 20 µM: Homo sapiens, HUVEC, 48 h, read-out: % Inhibition of Proliferation. Here is the method:
The assay was performed as follows. Vascular endothelial growth factor (VEGF, Cat #SRP3182) was purchased from Sigma. […] Stock solutions of all compounds were prepared in DMSO and were serially diluted for cell culture treatment maintaining the final DMSO concentration at less than 1%. Cell proliferation of HUVECs was evaluated through the MTT (3-[4, 5-dimethylthiazol-2-yl]-2, 5-dimethyltetrazolium bromide) colorimetric assay, as previously described.^28 The HUVECs were seeded at a density of 10,000 cells/well in 24 well plates in serum-containing medium and cultured overnight. Cells were starved with 300 μL of assay media (0.1% BSA+0.1% FBS in basal medium) for 24 h. Then, cells were treated with 500 μL of assay medium (control group), VEGF (10 ng/mL, positive control group) or VEGF along with compounds (20 μM). After 48 h of culture, 50 μL of MTT stock (5 mg/mL in PBS) was added to each well and incubated for 2 h at 37° C. to allow the formation of dark blue formazan crystals in the metabolically active cells. The medium was removed, the cells were washed with PBS (pH 7.4), and 100 μL of acidified isopropanol (0.33 mL HCl in 100 mL isopropanol) was added to each well and incubated for 5 min with thorough agitation to solubilize the formazan crystals. An equal volume of the solution was transferred to a 96-well plate and the absorbance was immediately measured using a microplate reader at a wavelength of 570 nm.

Assay [2] concerns the target T1, Mitochondrial respiratory complex II (Rattus norvegicus, UniProt P21913+Q641Z9+Q6PCT8+Q920L2).
T1 construct: measured spectrophotometrically using isolated rat heart mitochondria; from tissue; host or cells: rat heart mitochondria / sub-mitochondrial particles
The experiment in a line: Mitochondrial respiratory complex II inhibition assay. Format: biochemical. As to conditions: 100 μM, relative to DMSO control; for inhibition at 100 µM: read-out: inhibition of CII. The procedure:
The assay was performed as follows. Mitochondria were isolated either from fresh rat hearts or by differential centrifugation in sucrose-based buffer as previously described.^24 Complex II enzymatic activity was determined spectrophotometrically as the rate of succinate-driven, co-enzyme Q2-linked reduction of dichlorophenolindophenol (DCPIP).^49 Mitochondria or sub-mitochondrial particles were incubated in phosphate buffer (pH 7.4) containing 40 μM DCPIP, 1 mM KCN, 10 μM rotenone, and 50 μM co-enzyme Q2. The rate of reduction of DCPIP to DCPIPH2 was followed at […] (ε=21,000 M-1). Varying amounts of succinate and inhibitors were used to determine an IC50 value. At the end of each run thenoyltrifluoroacetone (1 mM) was added and the residual TTFA-insensitive rate subtracted.

The mark [3] stands for this setting: 20 μM compound, VEGF 10 ng/mL, relative to VEGF treated cells, mean ± SEM n = 3.

Where “and” joins values, the source holds several entries; their conditions need not be identical. Equal entries are not always repeated. Entries after “also recorded” stand apart in the source; their conditions may differ. Where two headings read alike, the source gives them in different places.

T1 sequence (Q920L2 35-656): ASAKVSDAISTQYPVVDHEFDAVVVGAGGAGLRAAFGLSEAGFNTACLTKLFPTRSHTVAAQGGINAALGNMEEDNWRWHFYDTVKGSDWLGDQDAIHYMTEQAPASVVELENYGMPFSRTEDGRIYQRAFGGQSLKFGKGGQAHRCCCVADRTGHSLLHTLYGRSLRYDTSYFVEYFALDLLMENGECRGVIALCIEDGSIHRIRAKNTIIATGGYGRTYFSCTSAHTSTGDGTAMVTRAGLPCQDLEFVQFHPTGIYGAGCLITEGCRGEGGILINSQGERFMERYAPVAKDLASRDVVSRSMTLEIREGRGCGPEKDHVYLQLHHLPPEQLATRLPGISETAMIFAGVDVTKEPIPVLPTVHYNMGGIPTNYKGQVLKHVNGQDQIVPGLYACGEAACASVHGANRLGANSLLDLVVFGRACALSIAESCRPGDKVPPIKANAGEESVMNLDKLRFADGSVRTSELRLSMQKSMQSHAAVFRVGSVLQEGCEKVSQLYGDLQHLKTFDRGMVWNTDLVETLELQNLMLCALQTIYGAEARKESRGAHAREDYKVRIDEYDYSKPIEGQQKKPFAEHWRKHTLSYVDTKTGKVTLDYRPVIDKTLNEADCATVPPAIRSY
T1 sequence (P21913 31-282): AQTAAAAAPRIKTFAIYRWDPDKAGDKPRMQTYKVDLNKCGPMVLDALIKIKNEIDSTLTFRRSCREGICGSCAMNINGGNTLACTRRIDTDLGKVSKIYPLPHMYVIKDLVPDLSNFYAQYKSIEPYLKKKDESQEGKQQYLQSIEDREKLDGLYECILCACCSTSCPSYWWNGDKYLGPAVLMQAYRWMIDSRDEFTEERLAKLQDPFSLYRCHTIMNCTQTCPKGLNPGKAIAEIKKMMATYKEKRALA
T1 sequence (Q641Z9 1-169): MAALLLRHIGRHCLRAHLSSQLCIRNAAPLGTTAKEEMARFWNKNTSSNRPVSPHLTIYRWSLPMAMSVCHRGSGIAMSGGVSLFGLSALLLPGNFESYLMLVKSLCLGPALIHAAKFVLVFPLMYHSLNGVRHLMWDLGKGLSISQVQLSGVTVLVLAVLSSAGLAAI
T1 sequence (Q6PCT8 57-159): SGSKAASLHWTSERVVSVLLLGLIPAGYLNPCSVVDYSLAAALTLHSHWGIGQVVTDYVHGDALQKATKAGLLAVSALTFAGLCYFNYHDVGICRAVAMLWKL

Regarding `COc1ccc(CCNC2=NS(=O)(=O)c3cc(F)ccc3N2)cc1` [Compound 9a], the “inhibition of VEGF-induced HUVEC proliferation (in words)” value (“inhibition … (in words)” below) in assay [1] (VEGF 10 ng/mL) was “no appreciable inhibition”. The inhibition at 20 µM in assay [1] is 70 ± 22%. Consider `O=C1Nc2cc(Cl)ccc2S(=O)(=O)N1` [Compound 11b, 6-chloro-3-oxo-3,4-dihydro-2H-1,2,4-benzothiadiazine1,1-dioxide], for which the inhibition at 20 µM in assay [1] stood at 0%. For the molecule `CSC1=NS(=O)(=O)c2ccc(Cl)cc2N1` [Compound 13b, 6-Chloro-3-methylsulfanyl-4H-1,2,4-benzothiadiazine 1,1-Dioxide], in assay [1] (setting [3]), the inhibition at 20 µM was 21 ± 23%.

As to `CC(C)NC1=NS(=O)(=O)c2ccc(Cl)cc2N1` [Compound 14b, 6-Chloro-3-isopropylamino-4H-1,2,4-benzothiadiazine 1,1-Dioxide], the inhibition at 20 µM in assay [1] worked out at 146 ± 18%. In the case of `O=S1(=O)N=C(NCc2ccc(Cl)cc2)Nc2ccc(Br)cc21` [Compound 16c, 7-bromo-3-((4-chlorobenzyl)amino)-4H-benzo[e][1,2,4]thiadiazine 1,1-dioxide dioxide], in assay [2], the “inhibition of CII” value worked out at 45%. Still for that read-out and setting: to `O=S1(=O)N=C(NCc2ccc(Cl)cc2)Nc2ccccc21` [Compound 16d, 3-((4-chlorobenzyl)amino)-4H-benzo[e][1,2,4]thiadiazine 1,1-dioxide] belongs “inactive”.

Regarding `O=S1(=O)N=C(NCc2ccc(F)cc2)Nc2cc(Cl)ccc21` [Compound 17b, 6-chloro-3-((4-fluorobenzyl)amino)-4H-benzo[e][1,2,4]thiadiazine 1,1-dioxide], the inhibition at 20 µM in assay [1] (setting [3]) is 0%. Consider `O=S1(=O)N=C(NCCc2ccccc2)Nc2cc(Cl)ccc21` [Compound 18b, 6-chloro-3-(phenethylamino)-4H-benzo[e][1,2,4]thiadiazine 1,1-dioxide], for which the “inhibition … (in words)” value in assay [1] (VEGF 10 ng/mL) is reported as “suppressed HUVEC proliferation; also recorded: enhanced activity”. In assay [1], the inhibition at 20 µM was determined as 118 ± 12%. Turning to `CCNC1=NS(=O)(=O)c2ccccc2N1` [Compound 19d, 3-(ethylamino)-4H-benzo[e][1,2,4]thiadiazine 1,1-dioxide], the inhibition at 20 µM in assay [1] (setting [3]) was found to be 81 ± 25%. Turning to `COc1ccc(CNC2=NS(=O)(=O)c3ccc(Cl)cc3N2)cc1` [Compound 20b, 6-chloro-3-((4-methoxybenzyl)amino)-4H-benzo[e][1,2,4]thiadiazine 1,1-dioxide], in assay [1] (VEGF 10 ng/mL), the “inhibition … (in words)” value is reported as “suppressed HUVEC proliferation; also recorded: enhanced activity”. Further, the inhibition at 20 µM in assay [1] (setting [3]) stood at 132 ± 24%. Consider `O=S1(=O)N=C(NC2CCCC2)Nc2ccc(F)cc21` [Compound 22a, 7-fluoro-3-(cyclopentylamino)-4H-benzo[e][1,2,4]thiadiazine 1,1-dioxide], for which the “inhibition of CII” value in assay [2] was “inactive”. On to `O=S1(=O)N=C(NCCCc2ccccc2)Nc2ccccc21` [Compound 23d, 3-((3-phenylpropyl)amino)-4H-benzo[e][1,2,4]thiadiazine 1,1-dioxide], for which the inhibition at 100 µM in assay [2] came to 0%. Also, the inhibition at 20 µM in assay [1] (setting [3]) was 39 ± 68%. Take `O=S1(=O)N=C(NCc2ccc(C(F)(F)F)cc2)Nc2ccc(F)cc21` [Compound 25a, 7-fluoro-3-((4-(trifluoromethyl)benzyl)amino)-4H-benzo[e][1,2,4]thiadiazine 1,1-dioxide]: in assay [2], the “inhibition of CII” value is 7% and 0%. Regarding `COc1ccccc1CNC1=NS(=O)(=O)c2ccc(Cl)cc2N1` [Compound 26b, 6-chloro-3-((2-methoxybenzyl)amino)-4H-benzo[e][1,2,4]thiadiazine 1,1-dioxide], in assay [1] (setting [3]), the inhibition at 20 µM was determined as 79 ± 26%. Regarding `Cc1ccc(CNC2=NS(=O)(=O)c3cc(F)ccc3N2)cc1` [Compound 27a, 7-fluoro-3-((4-methylbenzyl)amino)-4H-benzo[e][1,2,4]thiadiazine 1,1-dioxide], the inhibition at 100 µM in assay [2] came to 23%.

On to `Cc1ccc(CNC2=NS(=O)(=O)c3ccc(Cl)cc3N2)cc1` [Compound 27b, 6-chloro-3-((4-methylbenzyl)amino)-4H-benzo[e][1,2,4]thiadiazine 1,1-dioxide], for which the inhibition at 20 µM in assay [1] (setting [3]) turned out to be 146 ± 18%. `COc1cccc(CNC2=NS(=O)(=O)c3ccc(Cl)cc3N2)c1` [Compound 28b, 6-chloro-3-((3-methoxybenzyl)amino)-4H-benzo[e][1,2,4]thiadiazine 1,1-dioxide]: the inhibition at 20 µM in assay [1] is 126 ± 26%. In the case of `O=S1(=O)N=C(NCc2ccc(F)cc2F)Nc2ccc(Br)cc21` [Compound 29c, 7-bromo-3-((2,4-difluorobenzyl)amino)-4H-benzo[e][1,2,4]thiadiazine 1,1-dioxide], in assay [1] (setting [3]), the inhibition at 20 µM was found to be 127%.

Take `C=CCNC1=NS(=O)(=O)c2ccc(Cl)cc2N1` [Compound 32b, 3-(allylamino)-6-chloro-4H-benzo[e][1,2,4]thiadiazine 1,1-dioxide]: the inhibition at 20 µM in assay [1] (setting [3]) was 0%. As for `COc1cccc(CCNC2=NS(=O)(=O)c3ccc(Cl)cc3N2)c1` [Compound 40b, 6-chloro-3-((3-methoxyphenethyl)amino)-4H-benzo[e][1,2,4]thiadiazine 1,1-dioxide], the inhibition at 20 µM in assay [1] was 99 ± 22%. For `Cc1ccccc1CNC1=NS(=O)(=O)c2ccc(Cl)cc2N1` [Compound 41b, 6-Chloro-3-((2-methylbenzyl)amino)-4H-benzo[e][1,2,4]thiadiazine 1,1-dioxide], the “inhibition … (in words)” value in assay [1] (VEGF 10 ng/mL) is reported as “suppressed HUVEC proliferation; also recorded: enhanced activity”. For the same molecule, the inhibition at 20 µM in assay [1] (setting [3]) is 111 ± 9%.

With `CSC1=NS(=O)(=O)c2cc(F)ccc2N1C` [Compound 42a, 7-fluoro-4-methyl-3-(methylthio)-4H-benzo[e][1,2,4]thiadiazine 1,1-dioxide], the “inhibition … (in words)” value in assay [1] (VEGF 10 ng/mL) is “no appreciable inhibition”. Also, the inhibition at 20 µM in assay [1] (setting [3]) is 41 ± 30%. For the molecule `Cc1cccc(CNC2=NS(=O)(=O)c3ccc(Cl)cc3N2)c1` [Compound 42b, 6-Chloro-3-((3-methylbenzyl)amino)-4H-benzo[e][1,2,4]thiadiazine 1,1-dioxide], the “inhibition … (in words)” value in assay [1] (VEGF 10 ng/mL) is listed as “suppressed HUVEC proliferation; also recorded: enhanced activity”. In addition, the inhibition at 20 µM in assay [1] amounted to 125 ± 10%. Turning to `O=S1(=O)N=C(NCc2ccc(F)cc2)Nc2ccc(Cl)cc21` [Compound 54e, 7-Chloro-3-((4-fluorobenzyl)amino)-4H-benzo[e][1,2,4]thiadiazine 1,1-dioxide], in assay [1] (setting [3]), the inhibition at 20 µM was 70 ± 23%. Take `O=S1(=O)N=C(NCCc2ccccc2)Nc2ccc(Cl)cc21` [Compound 55e, 7-Chloro-3-(phenethylamino)-4H-benzo[e][1,2,4]thiadiazine 1,1-dioxide]: the inhibition at 20 µM in assay [1] stood at 82 ± 10%. Take `O=S1(=O)N=C(NCc2ccccc2)Nc2ccc(Cl)cc21` [Compound 57e, 3-(Benzylamino)-7-chloro-4H-benzo[e][1,2,4]thiadiazine 1,1-dioxide]: the “inhibition … (in words)” value in assay [1] (VEGF 10 ng/mL) is listed as “suppressed HUVEC proliferation; also recorded: enhanced activity”. Further, in assay [1] (setting [3]), the inhibition at 20 µM amounted to 122 ± 9%.

As to `O=S1(=O)N=C(NCc2ccncc2)Nc2ccc(Cl)cc21` [Compound 66e, 7-Chloro-3-((pyridin-4-ylmethyl)amino)-4H-benzo[e][1,2,4]thiadiazine 1,1-dioxide], the “inhibition … (in words)” value in assay [1] (VEGF 10 ng/mL) is on record as “suppressed HUVEC proliferation; also recorded: enhanced activity”. The inhibition at 20 µM in assay [1] (setting [3]) stood at 67 ± 27%.

Source of the values: US20230219912A1, “HALOGENATED BENZOTHIADIAZINES FOR THE TREATMENT OF CANCER” (BOARD OF REGENTS OF THE UNIVERSITY OF NEBRASKA, priority 2020, published 2023).
